Here are results for one compound from patent US20080220056A1, “Treatment for liver disease” (UNIVERSITY OF SOUTHAMPTON, priority 2002, published 2008).

In assay [1] the test system is activated hepatic stellate cells. Description: Apoptosis of activated hepatic stellate cells by acridine orange, sulfasalazine. Particulars: 24 hours. Type of assay: cell-based. As for the experimental part: (§1) Treatment of activated hepatic stellate cells with Sulfasalazine (at a concentration of 0.5, 1 or 2 mM) for 24 hours induced a dose-dependent increase in apoptosis visualised by both Acridine Orange staining (30%, 45% and 55% respectively).

The test system of assay [2] is NFκB DNA binding activity. Briefly: Electromobility shift assay, sulfasalazine-treated hepatic stellate cells. In kind it is cell-based. Particulars: day 7 HSC; 0.5, 1 and 2 mM for 24 hours.
In assay [3] the test system is NFκB responsive gene promoters. Briefly: NFκB responsive gene promoter activity. In kind it is cell-based. Particulars: 24 hours, versus untreated cells.
Assay [4] has as its system experimentally induced fibrosis. Description: Recovery from carbon tetrachloride induced fibrosis in rats, sulfasalazine. Type of assay: in vivo, rat. The protocol: Adult male Sprague Dawley rats were treated twice weekly for six weeks by intraperitoneal injection of the hepatotoxin carbon tetrachloride and then allowed to recover for 24 hours prior to treatment with either vehicle control or sulfasalazine. Animals were then left to recover for either a further 16 or 72 hours.

For another assay, the system named is caspase 3 activity. Briefly: Caspase 3 activity, sulfasalazine-treated hepatic stellate cells. Type of assay: cell-based. Conditions: 0.5, 1 or 2 mM. As for the experimental part:
as §1

Molecules are shown by their SMILES.

For `O=C(O)c1cc(/N=N/c2ccc(S(=O)(=O)Nc3ccccn3)cc2)ccc1O` [Sulfasalazine], the results for the “apoptosis by Acridine Orange staining” value in assay [1] (0.5 mM), in assay [1] (1 mM) and in assay [1] (2 mM) were 30%, 45% and 55%, respectively. The “NFκB DNA binding activity” value in assay [2] is listed as “dose dependently inhibited NFκB DNA binding activity”. Further, the “activity of NFκB responsive gene promoters (PGJ21 (4xNFκB), IL6 and IκBα)” value in assay [3] was “repressed the activity of three NFκB responsive gene promoters”. The “activity of control 7×AP1 promoter” value in assay [3] is “but not a control 7×AP1 promoter”. The “collagen deposition (fibrosis) versus control livers” value in assay [4] (six weeks CCl4, 16 hours recovery) is “no significant difference in collagen deposition”. Besides, in assay [4] (six weeks CCl4, 72 hours recovery), the “collagen versus control livers” value is “significantly less collagen”. Further, the “fibrosis score (1-4; 1 no fibrosis, 4 cirrhosis)” value in assay [4] (six weeks CCl4, 72 hours recovery, control livers 3) was 1.5. In addition, in assay [4] (six weeks CCl4, treatment 24 hours later, 16 hours recovery), the “numbers of activated hepatic stellate cells versus control livers” value was “large reduction in numbers of activated hepatic stellate cells”. The “caspase 3 activity” value with caspase 3 activity is “increased caspase 3 activity in a dose-dependent manner”.
